Results taken from US20110230481A2, “DERIVATIVES OF TETRABROMOBENZIMIDAZOLE, A PROCESS FOR THE PREPARATION THEREOF, A PHARMACEUTICAL COMPOSITION COMPRISING THE SAME, A METHOD OF USING THE SAME, A METHOD FOR MODULATING OR REGULATING SERINE/THREONINE KINASES, AND SERINE/THREONINE KINASES MODULATING AGENT” (SELVITA S.A., priority 2009, published 2011).

How the values were obtained:
Experiment in all cases: KINOMEscan Max
Format in all cases: binding
[1] = target: PCTK1 (Homo sapiens, UniProt Q00536)
Procedure, shortened: (§1)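 Competitive displacement format with DNA-tagged human kinase and an immobilized active-site probe; detection by qPCR amplification of the kinase's DNA tag.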

[2] = target: T1, ICK (Homo sapiens, UniProt Q9UPZ9)
T1 construct: purchased Ambit Kinomescan (contract panel, KINOMEscan Max)
Procedure, shortened: as §1

[3] = target: T2, FRK (Homo sapiens, UniProt P42685)
T2 construct: purchased Ambit Kinomescan (contract panel, KINOMEscan Max)
Procedure, shortened: as §1

[4] = target: T3, CSF1R (Homo sapiens, UniProt P07333)
T3 construct: purchased Ambit (KINOMEscan Max panel service)
T3 sequence (P07333 20-972): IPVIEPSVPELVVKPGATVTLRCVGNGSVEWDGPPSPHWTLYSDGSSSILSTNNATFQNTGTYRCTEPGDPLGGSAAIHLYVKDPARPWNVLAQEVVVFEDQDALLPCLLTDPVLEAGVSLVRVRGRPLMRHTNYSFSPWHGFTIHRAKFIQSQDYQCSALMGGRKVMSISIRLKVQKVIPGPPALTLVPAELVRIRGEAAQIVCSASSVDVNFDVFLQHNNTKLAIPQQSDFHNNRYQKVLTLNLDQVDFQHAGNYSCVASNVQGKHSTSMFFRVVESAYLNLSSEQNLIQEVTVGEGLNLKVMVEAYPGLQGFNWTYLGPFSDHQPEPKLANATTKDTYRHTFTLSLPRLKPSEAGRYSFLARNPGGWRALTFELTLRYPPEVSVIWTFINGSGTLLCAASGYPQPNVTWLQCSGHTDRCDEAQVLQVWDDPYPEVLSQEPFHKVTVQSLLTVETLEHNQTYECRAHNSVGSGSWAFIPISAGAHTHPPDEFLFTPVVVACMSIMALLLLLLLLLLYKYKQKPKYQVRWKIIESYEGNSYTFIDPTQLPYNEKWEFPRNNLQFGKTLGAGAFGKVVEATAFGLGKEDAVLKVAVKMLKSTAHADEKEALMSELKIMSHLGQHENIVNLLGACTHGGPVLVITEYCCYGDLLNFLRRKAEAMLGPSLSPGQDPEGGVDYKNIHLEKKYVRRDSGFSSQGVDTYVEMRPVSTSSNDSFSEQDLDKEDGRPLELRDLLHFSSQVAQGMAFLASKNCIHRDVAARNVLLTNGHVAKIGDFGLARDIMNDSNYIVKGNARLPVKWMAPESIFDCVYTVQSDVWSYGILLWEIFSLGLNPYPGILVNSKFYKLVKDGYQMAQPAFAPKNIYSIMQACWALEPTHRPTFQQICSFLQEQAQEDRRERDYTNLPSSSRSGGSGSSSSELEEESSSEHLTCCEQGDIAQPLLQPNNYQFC
Procedure, shortened: as §1

[5] = target: T4, HIPK4 (Homo sapiens, UniProt Q8NE63)
T4 construct: DNA tag (qPCR read-out)
Procedure, shortened: as §1

[6] = target: T5, PRKG1 (Homo sapiens, UniProt Q13976)
T5 construct: DNA tag (qPCR read-out)
T5 sequence (Q13976 whole entry): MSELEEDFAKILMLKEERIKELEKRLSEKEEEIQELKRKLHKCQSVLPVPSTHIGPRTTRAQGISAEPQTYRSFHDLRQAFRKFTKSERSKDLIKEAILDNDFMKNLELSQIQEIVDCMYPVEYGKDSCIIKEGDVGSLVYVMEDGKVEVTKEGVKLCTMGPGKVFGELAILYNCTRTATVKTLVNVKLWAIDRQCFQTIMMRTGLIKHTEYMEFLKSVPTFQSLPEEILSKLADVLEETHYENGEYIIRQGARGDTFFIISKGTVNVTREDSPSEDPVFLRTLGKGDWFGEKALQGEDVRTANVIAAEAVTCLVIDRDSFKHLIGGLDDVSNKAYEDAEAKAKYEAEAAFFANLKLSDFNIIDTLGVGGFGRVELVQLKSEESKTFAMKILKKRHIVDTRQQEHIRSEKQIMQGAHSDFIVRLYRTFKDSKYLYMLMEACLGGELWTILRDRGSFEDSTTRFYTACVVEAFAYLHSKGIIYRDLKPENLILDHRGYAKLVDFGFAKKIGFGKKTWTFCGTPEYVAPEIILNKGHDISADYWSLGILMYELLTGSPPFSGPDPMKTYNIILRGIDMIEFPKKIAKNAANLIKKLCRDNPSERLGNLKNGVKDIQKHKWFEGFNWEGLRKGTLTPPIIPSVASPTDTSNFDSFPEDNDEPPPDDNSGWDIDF
Procedure, shortened: as §1

[7] = target: T6, RIPK2 (Homo sapiens, UniProt O43353)
T6 construct: DNA tag (qPCR read-out)
Procedure, shortened: as §1

[8] = target: T7, TGFBR1 (Homo sapiens, UniProt P36897)
T7 construct: purchased Ambit Kinomescan (contract screening service)
Procedure, shortened: as §1

[9] = target: CASK (Homo sapiens, UniProt O14936)
Procedure, shortened: as §1

[10] = target: PRKR (Homo sapiens, UniProt P19525); conditions: 1 μM
Chain of PRKR (P19525 whole entry): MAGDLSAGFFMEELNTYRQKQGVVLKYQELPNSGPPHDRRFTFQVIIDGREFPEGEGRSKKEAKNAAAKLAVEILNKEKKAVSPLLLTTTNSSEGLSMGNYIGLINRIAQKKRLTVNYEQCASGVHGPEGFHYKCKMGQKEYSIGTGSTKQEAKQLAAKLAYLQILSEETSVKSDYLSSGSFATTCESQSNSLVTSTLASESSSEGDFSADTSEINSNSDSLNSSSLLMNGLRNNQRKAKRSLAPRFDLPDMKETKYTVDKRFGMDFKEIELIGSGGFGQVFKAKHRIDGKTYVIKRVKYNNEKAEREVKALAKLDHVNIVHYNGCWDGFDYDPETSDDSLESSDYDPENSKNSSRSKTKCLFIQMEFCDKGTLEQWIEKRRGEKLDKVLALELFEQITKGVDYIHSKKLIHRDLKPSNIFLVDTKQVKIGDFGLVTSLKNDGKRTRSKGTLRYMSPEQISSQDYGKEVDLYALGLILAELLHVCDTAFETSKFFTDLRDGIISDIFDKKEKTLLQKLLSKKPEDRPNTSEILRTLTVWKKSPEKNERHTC
Procedure, shortened: as §1

[11] = target: T8, LATS1 (Homo sapiens, UniProt O95835)
T8 construct: purchased Ambit Kinomescan (contract panel)
Procedure, shortened: as §1

[12] = target: T9, CSNK1A1 (Homo sapiens, UniProt P48729)
T9 construct: DNA tag (qPCR read-out)
Procedure, shortened: as §1

[13] = target: T10, TAOK3 (Homo sapiens, UniProt Q9H2K8)
T10 construct: purchased Ambit Kinomescan (contract screening service)
Procedure, shortened: as §1

[14] = target: T11, PIP5K2C (Homo sapiens, UniProt Q8TBX8)
T11 construct: DNA tag (qPCR read-out)
Procedure, shortened: as §1

[15] = target: T12, MARK1 (Homo sapiens, UniProt Q9P0L2)
T12 construct: purchased Ambit Kinomescan (contract panel)
T12 sequence (Q9P0L2 whole entry): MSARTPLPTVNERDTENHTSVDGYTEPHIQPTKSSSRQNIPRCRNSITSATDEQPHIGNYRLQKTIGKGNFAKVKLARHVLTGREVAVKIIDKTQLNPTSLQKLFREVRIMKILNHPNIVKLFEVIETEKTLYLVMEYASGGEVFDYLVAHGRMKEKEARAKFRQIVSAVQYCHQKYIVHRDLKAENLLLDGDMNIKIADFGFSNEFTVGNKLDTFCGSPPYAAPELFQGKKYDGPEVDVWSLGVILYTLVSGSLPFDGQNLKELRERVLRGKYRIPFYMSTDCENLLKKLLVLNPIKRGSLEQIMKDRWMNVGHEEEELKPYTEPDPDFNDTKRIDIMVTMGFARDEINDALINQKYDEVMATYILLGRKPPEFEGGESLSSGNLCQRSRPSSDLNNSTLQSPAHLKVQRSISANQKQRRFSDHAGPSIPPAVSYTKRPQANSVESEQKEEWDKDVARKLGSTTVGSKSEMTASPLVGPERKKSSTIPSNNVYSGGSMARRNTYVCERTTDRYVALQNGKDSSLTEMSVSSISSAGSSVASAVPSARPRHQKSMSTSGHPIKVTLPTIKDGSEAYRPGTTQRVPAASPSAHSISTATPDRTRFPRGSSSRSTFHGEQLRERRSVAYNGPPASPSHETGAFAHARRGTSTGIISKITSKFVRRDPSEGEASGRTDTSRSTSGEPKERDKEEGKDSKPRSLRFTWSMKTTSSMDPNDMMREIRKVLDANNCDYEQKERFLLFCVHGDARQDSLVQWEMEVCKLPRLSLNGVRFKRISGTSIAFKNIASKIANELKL
Procedure, shortened: as §1

[16] = target: T13, ERK2 (Homo sapiens, UniProt P28482)
T13 construct: purchased Ambit Kinomescan (contract panel, KINOMEscan Max)
Procedure, shortened: as §1

[17] = target: T14, DAPK1 (Homo sapiens, UniProt P53355)
T14 construct: DNA tag (qPCR read-out)
Procedure, shortened: as §1

[18] = target: T15, AURKC (Homo sapiens, UniProt Q9UQB9)
T15 construct: purchased Ambit (KINOMEscan Max service)
Procedure, shortened: as §1

[19] = target: T16, PAK2 (Homo sapiens, UniProt Q13177)
T16 construct: purchased Ambit (KINOMEscan Max service)
Procedure, shortened: as §1

[20] = target: T17, DCAMKL3 (Homo sapiens, UniProt Q9C098)
T17 construct: purchased Ambit (KINOMEscan Max panel service)
T17 sequence (Q9C098 whole entry): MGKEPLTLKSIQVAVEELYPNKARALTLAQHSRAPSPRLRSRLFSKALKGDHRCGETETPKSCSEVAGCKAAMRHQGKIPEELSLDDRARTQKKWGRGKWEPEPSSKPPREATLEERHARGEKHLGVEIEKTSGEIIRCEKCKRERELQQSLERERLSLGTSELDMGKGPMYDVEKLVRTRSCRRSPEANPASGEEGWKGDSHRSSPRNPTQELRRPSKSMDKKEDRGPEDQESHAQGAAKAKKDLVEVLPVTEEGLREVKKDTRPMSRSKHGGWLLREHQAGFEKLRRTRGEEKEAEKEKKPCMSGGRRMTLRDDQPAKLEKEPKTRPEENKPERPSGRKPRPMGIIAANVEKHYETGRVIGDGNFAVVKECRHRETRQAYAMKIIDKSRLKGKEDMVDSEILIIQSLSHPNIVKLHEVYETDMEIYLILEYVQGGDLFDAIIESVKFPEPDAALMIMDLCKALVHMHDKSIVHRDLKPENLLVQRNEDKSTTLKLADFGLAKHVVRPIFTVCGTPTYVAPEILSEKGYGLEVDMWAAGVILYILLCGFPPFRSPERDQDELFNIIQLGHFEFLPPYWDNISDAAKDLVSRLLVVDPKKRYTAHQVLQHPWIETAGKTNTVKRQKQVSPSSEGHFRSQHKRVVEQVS
Procedure, shortened: as §1

[21] = target: T18, MAP3K1 (Homo sapiens, UniProt Q13233)
T18 construct: purchased Ambit Kinomescan (contract panel)
Procedure, shortened: as §1

[22] = target: T19, JAK1(JH1domain-catalytic) (Homo sapiens, UniProt P23458); conditions: 1 μM
T19 construct: JAK1(JH1domain-catalytic); purchased Ambit (KINOMEscan Max service)
T19 sequence (P23458 875-1153 limits assumed): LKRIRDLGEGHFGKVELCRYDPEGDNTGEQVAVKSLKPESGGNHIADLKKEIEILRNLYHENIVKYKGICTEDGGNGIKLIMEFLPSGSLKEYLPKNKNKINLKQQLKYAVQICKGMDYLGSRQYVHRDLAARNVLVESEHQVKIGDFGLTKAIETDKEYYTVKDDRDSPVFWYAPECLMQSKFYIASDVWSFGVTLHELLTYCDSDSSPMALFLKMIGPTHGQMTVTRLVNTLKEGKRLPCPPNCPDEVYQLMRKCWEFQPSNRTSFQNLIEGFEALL
Procedure, shortened: as §1

[23] = target: T20, EGFR (Homo sapiens, UniProt P00533); conditions: 1 μM
T20 construct: purchased Ambit (KINOMEscan Max panel service)
Procedure, shortened: as §1

[24] = target: T21, YANK2 (Homo sapiens, UniProt Q9NY57)
T21 construct: purchased Ambit Kinomescan (contract screening service)
T21 sequence (Q9NY57 whole entry): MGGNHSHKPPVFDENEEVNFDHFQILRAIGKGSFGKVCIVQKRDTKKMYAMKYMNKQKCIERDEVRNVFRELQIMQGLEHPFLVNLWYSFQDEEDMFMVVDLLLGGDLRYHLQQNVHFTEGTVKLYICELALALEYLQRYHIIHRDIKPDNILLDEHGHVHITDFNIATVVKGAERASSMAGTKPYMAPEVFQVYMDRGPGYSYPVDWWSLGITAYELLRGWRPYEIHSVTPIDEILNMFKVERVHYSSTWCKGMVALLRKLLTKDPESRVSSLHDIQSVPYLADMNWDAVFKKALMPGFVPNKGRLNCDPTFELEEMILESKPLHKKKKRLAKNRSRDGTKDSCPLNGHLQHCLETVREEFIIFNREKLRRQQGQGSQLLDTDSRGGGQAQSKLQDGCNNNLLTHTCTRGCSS
Procedure, shortened: as §1

[25] = target: T22, TNNI3K (Homo sapiens, UniProt Q59H18)
T22 construct: purchased Ambit Kinomescan (contract screening service)
Procedure, shortened: as §1

[26] = target: T23, RIOK1 (Homo sapiens, UniProt Q9BRS2)
T23 construct: DNA tag (qPCR read-out)
Procedure, shortened: as §1

[27] = target: T24, MERTK (Homo sapiens, UniProt Q12866)
T24 construct: purchased Ambit (KINOMEscan Max service)
Procedure, shortened: as §1

[28] = target: T25, TAK1 (Homo sapiens, UniProt O43318)
T25 construct: purchased Ambit (KINOMEscan Max service)
Procedure, shortened: as §1

[29] = target: T26, ARK5 (Homo sapiens, UniProt O60285); conditions: 1 μM
T26 construct: DNA tag (qPCR label); purchased Ambit Kinomescan (contract screening)
T26 sequence (O60285 whole entry): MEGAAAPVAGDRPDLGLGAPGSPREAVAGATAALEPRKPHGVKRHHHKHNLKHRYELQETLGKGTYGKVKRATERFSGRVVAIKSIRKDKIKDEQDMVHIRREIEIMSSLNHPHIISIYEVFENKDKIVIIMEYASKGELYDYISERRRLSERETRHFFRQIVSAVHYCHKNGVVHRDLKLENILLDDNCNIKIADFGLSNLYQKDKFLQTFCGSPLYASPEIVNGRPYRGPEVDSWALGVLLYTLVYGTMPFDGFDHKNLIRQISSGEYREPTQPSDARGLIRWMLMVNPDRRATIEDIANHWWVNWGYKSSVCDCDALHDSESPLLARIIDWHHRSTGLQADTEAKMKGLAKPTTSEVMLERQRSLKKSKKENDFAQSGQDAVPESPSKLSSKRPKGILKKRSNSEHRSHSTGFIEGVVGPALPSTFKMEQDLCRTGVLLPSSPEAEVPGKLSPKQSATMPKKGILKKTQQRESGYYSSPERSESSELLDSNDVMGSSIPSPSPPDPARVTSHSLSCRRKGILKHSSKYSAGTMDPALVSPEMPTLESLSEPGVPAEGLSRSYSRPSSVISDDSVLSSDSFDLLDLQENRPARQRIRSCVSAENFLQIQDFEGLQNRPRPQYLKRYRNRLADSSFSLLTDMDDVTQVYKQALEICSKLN
Procedure, shortened: as §1

[30] = target: T27, CLK4 (Homo sapiens, UniProt Q9HAZ1)
T27 construct: DNA tag (qPCR read-out); purchased Ambit Kinomescan
Procedure, shortened: as §1

[31] = target: T28, IKK-beta (Homo sapiens, UniProt O14920)
T28 construct: DNA tag (qPCR read-out)
Procedure, shortened: as §1

[32] = target: STK33 (Homo sapiens, UniProt Q9BYT3)
Procedure, shortened: as §1

[33] = target: T29, PRKCH (Homo sapiens, UniProt P24723)
T29 construct: DNA tag (qPCR read-out); purchased Ambit Kinomescan
Procedure, shortened: as §1

[34] = target: PIK3CA(E542K) (Homo sapiens, UniProt P42336, E542K)
Procedure, shortened: as §1

[35] = target: T30, LATS2 (Homo sapiens, UniProt Q9NRM7); conditions: 1 μM
T30 construct: purchased Ambit (KINOMEscan Max service)
Procedure, shortened: as §1

NCCCNc1nc2c(Br)c(Br)c(Br)c(Br)c2[nH]1 [Compound 11, N-(3-aminopropyl)-4,5,6,7-tetrabromo-1H-benzo[d]imidazol-2-amine]
remaining binding at 1 µM [1]: 100% | remaining binding at 1 µM [2]: 100% | remaining binding at 1 µM [3]: 100% | remaining binding at 1 µM [4]: 100% | remaining binding at 1 µM [5]: 53% | remaining binding at 1 µM [6]: 53% | remaining binding at 1 µM [7]: 100% | remaining binding at 1 µM [8]: 100% | remaining binding at 1 µM [9]: 94% | % binding [10]: 91% | remaining binding at 1 µM [11]: 100% | remaining binding at 1 µM [12]: 35% | remaining binding at 1 µM [13]: 100% | remaining binding at 1 µM [14]: 56% | remaining binding at 1 µM [15]: 100% | remaining binding at 1 µM [16]: 100% | remaining binding at 1 µM [17]: 90% | remaining binding at 1 µM [18]: 83% | remaining binding at 1 µM [19]: 64% | remaining binding at 1 µM [20]: 100% | remaining binding at 1 µM [21]: 100% | % binding [22]: 86% | % binding [23]: 100% | remaining binding at 1 µM [24]: 100% | remaining binding at 1 µM [25]: 100% | remaining binding at 1 µM [26]: 56% | remaining binding at 1 µM [27]: 70% | remaining binding at 1 µM [28]: 65% | % binding [29]: 100% | remaining binding at 1 µM [30]: 22% | remaining binding at 1 µM [31]: 56% | remaining binding at 1 µM [32]: 77% | remaining binding at 1 µM [33]: 23% | remaining binding at 1 µM [34]: 98% | % binding [35]: 70%
